Target: T1, Glycine--tRNA ligase (Bombyx mori, UniProt Q04451)
T1 sequence (Q04451 whole entry): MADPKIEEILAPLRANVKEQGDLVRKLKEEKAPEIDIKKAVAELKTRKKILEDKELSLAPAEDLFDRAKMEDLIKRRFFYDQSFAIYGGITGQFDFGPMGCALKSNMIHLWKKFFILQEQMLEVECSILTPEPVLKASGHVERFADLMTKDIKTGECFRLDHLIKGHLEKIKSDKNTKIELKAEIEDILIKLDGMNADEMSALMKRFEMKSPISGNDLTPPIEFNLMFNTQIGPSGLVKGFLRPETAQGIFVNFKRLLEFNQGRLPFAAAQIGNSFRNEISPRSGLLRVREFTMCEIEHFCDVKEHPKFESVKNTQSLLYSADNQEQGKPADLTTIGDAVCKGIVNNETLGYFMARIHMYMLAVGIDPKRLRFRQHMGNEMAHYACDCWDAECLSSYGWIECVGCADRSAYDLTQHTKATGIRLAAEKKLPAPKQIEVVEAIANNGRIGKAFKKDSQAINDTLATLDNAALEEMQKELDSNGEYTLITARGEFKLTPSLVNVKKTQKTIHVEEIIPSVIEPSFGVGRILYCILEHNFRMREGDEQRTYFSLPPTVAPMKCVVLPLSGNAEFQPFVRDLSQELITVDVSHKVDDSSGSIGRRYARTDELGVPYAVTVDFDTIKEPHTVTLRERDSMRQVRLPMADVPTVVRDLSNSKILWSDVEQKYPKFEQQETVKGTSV
Assay: In Vitro Enzyme Activity Assay
Conditions: pH 7.5; 25 °C
From the text: Aminoacyl-tRNA synthetase assays were measuring the incorporation of [14C] amino acid into tRNA.

| Kd | Structure (SMILES) | IC50 | Ki |
| --- | --- | --- | --- |
| – | Nc1ncnc2c1ncn2[C@@H]1O[C@H](COP(=O)(O)OP(=O)(O)OP(=O)(O)O)[C@@H](O)[C@H]1O | 100 µM | 13 µM |
| – | Nc1ncnc2c1ncn2[C@@H]1O[C@H](COP(=O)(O)OP(=O)(O)CP(=O)(O)O)[C@@H](O)[C@H]1O [adenylylmethylenediphosphonate] | 10 µM | 0.8 µM |
| – | Nc1ncnc2c1ncn2[C@@H]1O[C@H](COP(=O)(O)CP(=O)(O)O)[C@@H](O)[C@H]1O [alpha, beta-methyleneadenosine 5 -diphosphate] | 600 µM | 60 µM |
| – | Nc1ncnc2c1ncn2[C@@H]1O[C@H](COP(=O)(O)O)[C@@H](O)[C@H]1O [adenosine 5 -monophosphate] | 800 µM | 80 µM |
| 0.27 µM | NCC(=O)NS(=O)(=O)OC[C@H]1O[C@@H](n2cnc3c(N)ncnc32)[C@H](O)[C@@H]1O [5-O-[N-(L-glycyl)sulfamoyl]adenosine] | 2 µM | 0.05 µM |
| – | Nc1ncnc2c1ncn2[C@@H]1O[C@H](COP(=O)(O)OP(=O)(O)NP(=O)(O)O)[C@@H](O)[C@H]1O [AMP.P[NH]P] | 100 µM | 20 µM |

— BindingDB's records for doi:10.1021/bi030031h (Medical College of Ohio, 2003)
